Reference: publication PMC6929975, “A supramolecular protein chaperone for vaccine delivery” (Theranostics, 2020)
Starred links: 1 amine or outer side, 2 acyl side, 3 side chain; linkers in the order of their positions; H or OH if unused. Non-standard residues stand in square brackets, D forms with d. Residues, ends and D or L forms follow the SMILES beside them. Groups on a side chain read outwards from the residue. *: point of attachment. γGlu = O=C(O)[C@H](CCC(=O)[*:2])N[*:1]; X1 = CC(C(=O)*)c1ccc(-c2ccccc2)c(F)c1

Experiments:
[1] = tested on: Raw 264.7 mouse macrophages; settings: 80 µg/mL
[2] = tested on: splenocytes; settings: 80 µg/mL
[3] = Dissolution and protein-induced hydrogelation / gel stability; assay type: physicochemical; settings: coassembled hydrogel with OVA, room temperature (20-25 °C)
Method: 2.5 mg of compounds were dispersed in endotoxin-free PBS buffer solution (pH = 7.4) at a final concentration of 0.5 wt% with sodium carbonate to adjust the final pH to 7.4. Proteins were dispersed in endotoxin-free PBS buffer solution (pH = 7.4) at a final concentration of 10 μg/μL. The proteins were then evenly dispersed in the hydrogel by vortexing. The mixtures were maintained at 37°C for half hour and hydrogel then formed. The final concentration of the protein in the hydrogel was 500 μg/mL.
We then tested the coassembly property of Comp. 1 with the model protein antigen ovalbumin (OVA). Comp. […] After adding OVA to the solution (final protein concentration = 0.05 wt%), we observed rapid hydrogelation within 10 minutes (Figure 1C). The resulting hydrogel was stable for more than 3 months at room temperature (20-25 °C). The maximum proportion of the nanofibers composed of OVA was 50% for Comp. 1 (Figure S5 and S6).

[4] = Antigen release assay (OVA release from hydrogel); assay type: physicochemical; settings: physically encapsulated OVA, 0.2 wt% gel, 150 μL, 30 μg OVA-RBITC, PBS pH 7.4, 37 °C, absorbance 560 nm
Method: The released profiles of OVA-RBITC from Vac-1 and Vac-2 in vitro were studied at 37 °C. 150 μL of Vac-1 or Vac-2 (0.2 wt%) containing 30 μg of OVA-RBITC was used for the measurement. 150 μL PBS solution (pH = 7.4) was firstly added on top of the gel, 100 μL of solution was taken out at the desired time point and 100 μL of fresh PBS solutions was added back. The absorbance of OVA-RBITC was determined at 560 nm by a microplate reader (BioTek Synergy 4) to calculate the cumulative release rate of OVA-RBITC from hydrogel vaccines.

[5] = target: T1, ovalbumin (OVA) (Gallus gallus, UniProt P01012); assay: Microscale thermophoresis (MST) binding to OVA; settings: Monolith NT.115, NT-647-labelled protein, PBS with 0.05% Tween-20, pH 7.4, Comp. 0.25 μM to 10 mM
T1 construct: purchased InvivoGen
T1 sequence (P01012 1-386): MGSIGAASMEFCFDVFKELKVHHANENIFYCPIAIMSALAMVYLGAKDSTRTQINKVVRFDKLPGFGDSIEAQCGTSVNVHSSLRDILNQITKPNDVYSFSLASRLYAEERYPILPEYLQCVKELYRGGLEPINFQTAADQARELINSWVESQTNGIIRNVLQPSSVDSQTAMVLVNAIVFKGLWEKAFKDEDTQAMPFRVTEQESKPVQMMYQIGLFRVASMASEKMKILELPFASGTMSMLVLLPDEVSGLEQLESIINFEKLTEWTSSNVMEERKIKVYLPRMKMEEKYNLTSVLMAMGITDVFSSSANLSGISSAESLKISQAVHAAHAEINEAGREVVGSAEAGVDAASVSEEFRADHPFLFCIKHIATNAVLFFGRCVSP
Text: For the interaction experiments of fluorescent-proteins with Comp. […] 1 or 2 at 1:1 volume ratio.

In the case of CC(C(=O)NCC(=O)N[C@H](Cc1ccccc1)C(=O)N[C@H](Cc1ccccc1)C(=O)N[C@H](Cc1ccc(O)cc1)C(=O)N[C@H](CCCCNC(=O)CC[C@H](NC(=O)CC[C@H](N)C(=O)O)C(=O)O)C(N)=O)c1ccc(-c2ccccc2)c(F)c1 (some centres unmarked) [Comp. 1, Fbp-G^DF^DF^DY^DK(γE)2-NH2] (X1-G[dF][dF][dY][dK]([γGlu-γGlu])-NH2), the “cell viability, Raw 264.7” value [1] is reported as “did not remarkably reduce the cell viability”, the “cell viability, splenocytes” value [2] is reported as “did not remarkably reduce the cell viability” and the “stability of the resulting hydrogel” value [3] is reported as “more than 3 months”.
In the case of Fbp-G^DF^DF^DY [Comp. 2], the “cumulative OVA release within 16 hours” value [4] is reported as about 100% and the “binding affinity for OVA, in words” value [5] is reported as “no measurable binding affinity”.
